# Test results taken from patent US10822349B2, “Macrocyclic purines for the treatment of viral infections” (JANSSEN SCIENCES IRELAND UNLIMITED COMPANY, priority 2012, dated 2020).
# Tests used:
# human TLR7 = target: T1, human TLR7 (Homo sapiens, UniProt Q9NYK1); experiment: TLR7 cellular reporter assay (HEK293 TLR7-NFκB-luc); format: cell-based; conditions: lowest effective concentration; HEK293 transiently transfected with TLR7 and NFκB-luc; 6 hours incubation
# T1 construct: expressed in transfected cells; host or cells: HEK293
# T1 sequence (Q9NYK1 27-1049): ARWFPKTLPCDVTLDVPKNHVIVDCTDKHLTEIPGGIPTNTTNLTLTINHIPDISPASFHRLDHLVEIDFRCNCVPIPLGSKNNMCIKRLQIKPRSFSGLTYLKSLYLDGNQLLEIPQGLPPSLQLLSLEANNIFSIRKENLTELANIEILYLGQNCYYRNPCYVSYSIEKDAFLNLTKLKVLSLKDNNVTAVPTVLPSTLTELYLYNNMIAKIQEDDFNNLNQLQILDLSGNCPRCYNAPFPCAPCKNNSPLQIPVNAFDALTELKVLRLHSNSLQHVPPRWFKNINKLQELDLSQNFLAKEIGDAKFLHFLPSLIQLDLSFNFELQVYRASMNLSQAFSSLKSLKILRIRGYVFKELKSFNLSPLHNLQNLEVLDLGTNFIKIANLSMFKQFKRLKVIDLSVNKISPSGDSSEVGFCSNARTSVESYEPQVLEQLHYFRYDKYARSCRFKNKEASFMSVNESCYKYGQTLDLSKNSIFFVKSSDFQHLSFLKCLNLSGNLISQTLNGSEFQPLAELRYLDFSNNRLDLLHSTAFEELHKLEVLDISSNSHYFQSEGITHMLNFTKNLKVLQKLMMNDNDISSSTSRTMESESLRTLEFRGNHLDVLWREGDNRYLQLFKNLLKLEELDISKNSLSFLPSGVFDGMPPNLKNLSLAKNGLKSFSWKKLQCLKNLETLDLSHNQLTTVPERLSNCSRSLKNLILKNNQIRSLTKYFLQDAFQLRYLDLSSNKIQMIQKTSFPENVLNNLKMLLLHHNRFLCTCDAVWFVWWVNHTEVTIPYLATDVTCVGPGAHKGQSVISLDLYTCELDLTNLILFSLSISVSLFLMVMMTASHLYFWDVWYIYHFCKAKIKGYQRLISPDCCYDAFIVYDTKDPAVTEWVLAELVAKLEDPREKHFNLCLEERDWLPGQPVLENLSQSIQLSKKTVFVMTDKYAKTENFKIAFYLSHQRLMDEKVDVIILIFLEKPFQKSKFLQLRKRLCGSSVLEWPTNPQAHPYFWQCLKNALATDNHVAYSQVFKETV
# Procedure: The ability of compounds to activate human TLR7 and TLR8 was assessed in a cellular reporter assay using HEK293 cells transiently transfected with a TLR7 or TLR8 expression vector and NFκB-luc reporter construct. Briefly, HEK293 cells were grown in culture medium (DMEM supplemented with 10% FCS and 2 mM Glutamine). For transfection of cells in 10 cm dishes, cells were detached with Trypsin-EDTA, transfected with a mix of CMV-TLR7 or TLR8 plasmid (750 ng), NFκB-luc plasmid (375 ng) and a transfection reagent and incubated 48 hours at 37° C. in a humidified 5% CO2 atmosphere. Transfected cells were then detached with Trypsin-EDTA, washed in PBS and resuspended in medium to a density of 1.67×10^5 cells/mL. Thirty microliters of cells were then dispensed into each well in 384-well plates, where 10 μL of compound in 4% DMSO was already present. Following 6 hours incubation at 37° C., 5% CO2, the luciferase activity was determined by adding 15 μl of Steady Lite Plus substrate (Perkin Elmer) to each well and readout performed on a ViewLux ultraHTS microplate imager (Perkin Elmer). Dose response curves were generated from measurements performed in quadruplicates. Lowest effective concentrations (LEC) values, defined as the concentration that induces an effect which is at least two fold above the standard deviation of the assay, were determined for each compound.
# [1] = test system: interferon production in human PBMC; experiment: Interferon production in human PBMC, read out on HEK-ISRE-luc reporter cells; format: cell-based; conditions: lowest effective concentration, PBMC supernatant after overnight incubation transferred to HEK-ISRE-luc cells; for minimal effective concentration: Homo sapiens, PBMC, 24 h, read-out: PBMC HEK-ISRE-luc (LEC; μM)
# Procedure: Activation of human TLR7 results in robust production of interferon by plasmacytoid dendritic cells present in human blood. The potential of compounds to induce interferon was evaluated by determination of interferon in the conditioned media from peripheral blood mononuclear cells (PBMC). The presence of interferon in the samples was determined, using an interferon reporter cell line stably expressing an interferon-stimulated responsive elements (ISRE)-luc reporter construct. The ISRE element with sequence GAAACTGAAACT (SEQ ID: 1) is highly responsive to the STAT1-STAT2-IRF9 transcription factor, which becomes activated upon binding of IFN-I to the IFN receptor. Briefly, PBMCs were prepared from buffy coats of at least two donors using a standard Ficoll centrifugation protocol. Isolated PBMCs were resuspended in RPMI medium supplemented with 10% human AB serum and 2×10^5 cells/well were dispensed into 384-well plates containing compounds (70 μL total volume). After overnight incubation of the PBMCs with the compounds, 10 μL of supernatant was transferred to 384-well plates containing 5×10^3 HEK-ISRE-luc cells/well in 30 μL (plated the day before). Following 24 hours of incubation, activation of the ISRE elements was measured by assaying luciferase activity using 40 μL/well Steady Lite Plus substrate (Perkin Elmer) and measured with ViewLux ultraHTS microplate imager (Perkin Elmer). The stimulating activity of each compound on the HEK-ISRE-luc cells was reported as LEC. The LEC in turn indicates the degree of ISRE activation on transfer of a defined amount of PBMC culture medium. Recombinant interferon alfa-2a (Roferon-A) was used as a standard control compound.
HEK293 TLR7-NFκB-luc (LEC; μM) (human TLR7),Compound,minimal effective concentration [1],PBMC HEK-ISRE-luc (LEC; μM) ([1]; 24 hours)
12.45 µM,Nc1nc2nc3c1nc(O)n3Cc1ccc(cc1)C/C=C\CCCCO2 [Compound 36],0.68 µM,–
0.8 µM,Nc1nc2nc3c1nc(O)n3Cc1cc(ccn1)OC/C=C\CCO2 [Compound 37],0.12 µM,–
0.53 µM,Nc1nc2nc3c1nc(O)n3Cc1cccc(c1)OCCCCCO2 [Compound 38],0.027 µM,–
2.28 µM,Nc1nc2nc3c1nc(O)n3Cc1ncccc1/C=C\CCCCO2 [Compound 42],0.5 µM,–
0.11 µM,Nc1nc2nc3c1nc(O)n3Cc1cccc(c1)OCCCCCCO2 [Compound 43],0.034 µM,–
5.77 µM,Nc1nc2nc3c1nc(O)n3Cc1ncccc1OC/C=C/CCO2 [Compound 44],0.62 µM,–
0.108 µM,Nc1nc2nc3c1nc(O)n3Cc1ncccc1OC/C=C\CCO2 [Compound 45],0.01 µM,–
6.49 µM,Nc1nc2nc3c1nc(O)n3Cc1cccc(n1)CC/C=C\CCO2 [Compound 46],1.13 µM,–
0.64 µM,Nc1nc2nc3c1nc(O)n3Cc1ccccc1C/C=C\CCO2 [Compound 48],2.04 µM,–
0.21 µM,Nc1nc2nc3c1nc(O)n3Cc1cccc(n1)OC/C=C/CCCO2 [Compound 49],0.16 µM,–
1.19 µM,Nc1nc2nc3c1nc(O)n3Cc1ncccc1OCCCCCO2 [Compound 50],0.24 µM,–
0.74 µM,Nc1nc2nc3c1nc(O)n3Cc1cc(ccn1)OC/C=C/CCO2 [Compound 51],0.069 µM,–
7.96 µM,Nc1nc2nc3c1ncn3Cc1cccc(c1)C/C=C\CCO2 [Compound 52],4.8 µM,–
0.029 µM,COc1cc2cc(c1)OCCCCOc1nc(N)c3nc(O)n(c3n1)C2 [Compound 53],0.01 µM,–
>25 µM,Nc1nc2nc3c1ncn3Cc1cccc(c1)OC/C=C\CO2 [Compound 55],15.3 µM,–
0.056 µM,COc1ccc2cc1OCCCCOc1nc(N)c3nc(O)n(c3n1)C2 [Compound 56],0.01 µM,–
0.08 µM,COc1ccc2cc1OC/C=C\COc1nc(N)c3nc(O)n(c3n1)C2 [Compound 57],0.021 µM,–
0.63 µM,Nc1nc2nc3c1nc(O)n3Cc1cc(ccn1)OCCCCCO2 [Compound 58],0.086 µM,–
4.41 µM,COc1c2cccc1OCCCCOc1nc(N)c3nc(O)n(c3n1)C2 [Compound 59],1.92 µM,–
0.088 µM,COc1ccc2cc1OC/C=C\COc1nc(N)c3nc(O)n(c3n1)C2 [Compound 60],–,0.033 µM

HEK293 TLR7-NFκB-luc (LEC; μM) (human TLR7),Compound,minimal effective concentration [1],PBMC HEK-ISRE-luc (LEC; μM) ([1]; 24 hours)
4.7 µM,COc1c2cccc1OC/C=C/COc1nc(N)c3nc(O)n(c3n1)C2 [Compound 61],4.98 µM,–
7.26 µM,COc1c2cccc1OC/C=C\COc1nc(N)c3nc(O)n(c3n1)C2 [Compound 62],2.03 µM,–
0.12 µM,COc1ccc2cc1Cn1c(O)nc3c(N)nc(nc31)OC/C=C/CO2 [Compound 63],0.031 µM,–
1.49 µM,Nc1nc2nc3c1nc(O)n3CCc1cccc(c1)OCCCCO2 [Compound 64],0.5 µM,–
0.038 µM,COc1cc2cc(c1)OC/C=C\COc1nc(N)c3nc(O)n(c3n1)C2 [Compound 65],0.03 µM,–
0.032 µM,COc1ccc2cc1CCCCCOc1nc(N)c3nc(O)n(c3n1)C2 [Compound 66],0.018 µM,–
0.0024 µM,COc1ccc2cc1C/C=C\CCOc1nc(N)c3nc(O)n(c3n1)C2 [Compound 67],0.0028 µM,–
0.006 µM,COc1ccc2cc1C/C=C/CCOc1nc(N)c3nc(O)n(c3n1)C2 [Compound 68],0.0057 µM,–
0.2 µM,COc1ccc2cc1Cn1c(O)nc3c(N)nc(nc31)OCCCCC2 [Compound 69],0.039 µM,–
0.15 µM,COc1ccc2cc1Cn1c(O)nc3c(N)nc(nc31)OCCCCO2 [Compound 70],0.04 µM,–
0.12 µM,CC1CCOc2cccc(c2)Cn2c(O)nc3c(N)nc(nc32)OC1 (centres unmarked) [Compound 71],0.04 µM,–
0.018 µM,COc1ccc2cc1Cn1c(O)nc3c(N)nc(nc31)OCC/C=C\C2 [Compound 72],0.0029 µM,–
0.045 µM,COc1ccc2cc1Cn1c(O)nc3c(N)nc(nc31)OCC/C=C/C2 [Compound 73],0.01 µM,–
0.1 µM,COc1ccc2cc1Cn1c(O)nc3c(N)nc(nc31)OC/C=C\CO2 [Compound 74],0.044 µM,–
0.12 µM,Nc1nc2nc3c1nc(O)n3Cc1ccccc1OCCCCO2 [Compound 76],0.064 µM,–
0.53 µM,Nc1nc2nc3c1nc(O)n3Cc1ccccc1OC/C=C\CO2 [Compound 77],0.1 µM,–
9.68 µM,Nc1nc2nc3c1ncn3Cc1ncccc1OC/C=C/CCO2 [Compound 78],> 25 µM,–
2.34 µM,Nc1nc2nc3c1ncn3Cc1ncccc1OC/C=C\CCO2 [Compound 79],1.78 µM,–
0.041 µM,Nc1nc2nc3c1nc(O)n3Cc1cccc(c1)OCC(=O)NCCCO2 [Compound 80],0.087 µM,–
4.59 µM,Nc1nc2nc3c1nc(O)n3Cc1ccc(cc1)OC/C=C/CCCO2 [Compound 81],0.63 µM,–
